pIC50: −log10 of the molar value.
Experiments:
Format in all cases: functional, cell-based
K562 = experiment: Antiproliferative activity against human K562 cells by MTT assay
[1] = Antiproliferative activity against human SPC-A1 cells by MTT assay; conditions: SPCA1
A549 = experiment: Antiproliferative activity against human A549 cells by MTT assay
A2780 [2] = experiment: Antiproliferative activity against cisplatin-resistant human A2780 cells by MTT assay
A2780 [3] = experiment: Antiproliferative activity against cisplatin-sensitive human A2780 cells by MTT assay

Row | SMILES | pIC50 (K562) | pIC50 [1] | pIC50 (A549) | pIC50 (A2780 [2]) | pIC50 (A2780 [3])
1 | C=CCc1cc(/C=N/Nc2ccccc2)c(O)c(-c2ccc(O)c(CC=C)c2)c1 | < 3.98 | < 3.98 | < 3.98 |  | 
2 | C=CCc1cc(-c2ccc(O)c(CC=C)c2)c2oncc2c1 | 4.11 | 4.11 | 4.18 |  | 
3 | C=CCc1cc(/C=N/C2CCCCC2)c(O)c(-c2ccc(O)c(CC=C)c2)c1 | 4.04 | 4.06 | 4.03 |  | 
4 | C=CCc1cc(/C=N\O)c(O)c(-c2ccc(O)c(CC=C)c2)c1 | 4.68 | 4.35 | 4.39 | 4.43 | 4.48
5 | C=CCc1ccc(O)c(-c2cc(/C=N/O)c(O)c(CC=C)c2)c1 | 4.60 | 4.27 | 4.40 |  | 
6 | C=CCc1ccc(O)c(-c2cc(/C=C3\SC(=O)NC3=O)c(O)c(CC=C)c2)c1 | 4.09 | < 3.99 | < 3.99 |  | 
7 | C=CCc1ccc(O)c(-c2cc(/C=C(\C#N)C(=O)OCC)c(O)c(CC=C)c2)c1 | 4.32 | 4.21 | 4.24 |  | 
8 | C=CCc1cc(/C=N\O)c(O)c(-c2cc(/C=N/O)c(O)c(CC=C)c2)c1 | 4.67 | 4.36 | 4.49 | 4.53 | 4.69
9 | C=CCc1cc(/C=C2\SC(=O)NC2=O)c(O)c(-c2cc(/C=C3\SC(=O)NC3=O)c(O)c(CC=C)c2)c1 | < 4.11 | < 4.11 | < 4.11 |  | 
10 | C=CCc1cc(/C=N/CCCCCC)c(O)c(-c2ccc(O)c(CC=C)c2)c1 | < 3.97 | < 3.97 | < 3.97 |  | 
11 | C=CCc1cc(/C=C(\C#N)C(=O)OCC)c(O)c(-c2ccc(O)c(CC=C)c2)c1 | 4.02 | 4.03 | 4.06 |  | 
12 | C=CCc1cc(/C=N/c2ccccc2)c(O)c(-c2ccc(O)c(CC=C)c2)c1 | 4.49 | 4.39 | 4.40 |  | 
13 | C=CCc1cc(C=O)c(O)c(-c2cc(C=O)c(O)c(CC=C)c2)c1 | 4.44 | 4.34 | 4.26 |  | 
14 | C=CCc1cc(C=O)c(O)c(-c2ccc(O)c(CC=C)c2)c1 | 4.41 | 4.42 | 4.38 |  | 
15 | C=CCc1cc(/C=N/CCN)c(O)c(-c2ccc(O)c(CC=C)c2)c1 | 4.37 | 4.30 | 4.39 |  | 
16 | C=CCc1cc(/C=C2\SC(=O)NC2=O)c(O)c(-c2ccc(O)c(CC=C)c2)c1 | 4.04 | < 3.99 | 4.04 |  | 
17 | C=CCc1ccc(O)c(-c2cc(C=O)c(O)c(CC=C)c2)c1 | 4.92 | 4.59 | 4.38 | 4.65 | 4.78
18 | C=CCc1ccc(O)c(-c2ccc(O)c(CC=C)c2)c1 [HONOKIOL] | 4.68 | 4.44 | 4.46 | 4.39 | 4.52
